Results reported in patent publication US20230276792A1, “SELECTIVE HERBICIDES BASED ON SUBSTITUTED ISOXAZOLIN CARBOXAMIDES AND CLOQUINTOCET-MEXYL” (Bayer Aktiengesellschaft, priority 2020, published 2023).

Key:
Type in all cases: in vivo
[1] = system: spring wheat, TRZAS Triso; test: Safener seed treatment, post-emergence herbicide application, crop damage; conditions: for HER effect + SAF [%] / Reduction [%]: cloquintocet-mexyl 0, 5 g a.i./kg seed; for HER effect [%]: without safener
Text: (§1) For safener seed treatment trials, sufficient seed amounts of the respective crops (spring wheat (TRZAS); spring barley (HORVS)) were weighed into screw cap glass bottles with a minimum volume trice of the seeds.
(§2) As a first step, specified safeners formulated as wettable powder (WP) or wettable granules (WG) were weighed out for the required dosages (g a.i./kg seed), corresponding to the seed amounts. The safener amounts were mixed with a coloured slurry blind formulation type, pre-diluted with milk at 3.5% fat rate (25 mgs slurry formulation plus 2 ml milk per 10 grams of seed). A tube roller was used for coating. The solutions were gradually pipetted each on the rotating seeds followed by coating for min. 3 hours until all liquid had been soaked up by the seeds. Thereafter, the coated seeds were put flat on open trays for drying over night at room temperature.
(§3) Treated seeds were then placed into pots (7 cm diameter) on the surface of sandy loam, pressed down, flat covered with additional soil and finally covered with sandy soil, also pressed down, watered, and kept under good growth conditions in a greenhouse, until the plants had reached 2-leaf-stage (BBCH 12).
(§4) At that stage, post-emergence application of the specified herbicides was done on: • a) pot sets containing plants with safener-coated seeds as described above, • b) as a reference, pot sets of plants without seed treatment.
(§5) The herbicides were formulated as wettable powder (WP). Equivalent to the spray area, compound amounts were weighed out and diluted related to the water application rate (300 l/ha) to an aqueous suspension plus additive (1 l/ha MERO). Dosage related equivalents were conventionally sprayed on trays with the potted plants.
(§6) After application, the test plants were kept under good growth conditions in a greenhouse. Assessment timings were 10 and 21 days after treatment (DAT) with the herbicide, by visual scoring of the crop damage in % (comparison of untreated with treated plants, either sprayed only with herbicide or with herbicide on plants with treated seeds).
(§7) Reduction [Difference]=herbicide damage without safener−herbicide damage with safener
(§8) Reduction [%]=(Reduction [Difference]*100)/herbicide damage without safener
b) Plant Species, Variety: TRZAS Triso, Safener (SAF): Cloquintocet-Mexyl

[2] = system: spring barley, HORVS Montoya; test: as above; set-up: key to Reduction [Difference]: % crop damage without safener minus % damage with safener; conditions: for HER effect + SAF / Reduction [%] / Reduction [Difference]: cloquintocet-mexyl 0, 5 g a.i./kg seed; for HER effect: without safener
Text: as §1, §2, §3, §4, §5, §6, §7, §8
(§9) a) Plant Species, Variety: HORVS Montoya, Safener (SAF): Cloquintocet-Mexyl

[3] = system: spring barley, HORVS Montoya; test: Tank-mix post-emergence crop damage, herbicide with and without safener cloquintocet-mexyl, greenhouse; set-up: key to Reduction [Difference]: damage without safener − damage with safener, % points (0–100% scale)
Method: Seeds of crops (spring wheat, TRZAS; spring barley, HORVS; maize, ZEAMA) were placed in sandy loam soil in peat pots, covered with soil and cultivated in a greenhouse under good growth conditions. Two to three weeks after sowing, the test plants were treated at the 1 to 3-leaf stage. The herbicide/safener active compound combinations according to the invention, formulated as wettable powders or emulsion concentrates, and, in parallel tests, the correspondingly formulated individual active compounds were sprayed onto the green parts of the plants in various dosages using an amount of water of 300 l/ha (converted).
The pots were returned under good growing conditions in a glasshouse and a visual assessment of herbicidal effects was made at intervals from 1 to 3 weeks after herbicide application (DAT=days after treatment). Assessment was on a percentage basis in comparison with untreated control plants (0%=no injury, 100%=complete kill).
as §7, §8, §9

[4] = 10 DAT, HER dose 1, 5 g a.i./ha
[5] = 21 DAT, HER dose 2 g a.i./ha, cloquintocet-mexyl 100 g a.i./ha
[6] = 21 DAT, HER dose 1, 5 g a.i./ha
[7] = 10 DAT, HER dose 1 g a.i./ha, cloquintocet-mexyl 50 g a.i./ha

## CC(C)OC(=O)C1CC(NC(=O)C2(C)CC(c3cccc(F)c3)=NO2)CO1 (mixture of isomers) [Example 1.78]
[1]; [4]
  HER effect + SAF [%]: 0%
  HER effect [%]: 20%
[1]; 10 DAT, HER dose 6 g a.i./ha
  HER effect + SAF [%]: 0%
  HER effect [%]: 70%
[1]; 10 DAT, HER dose 24 g a.i./ha
  HER effect + SAF [%]: 10%
  HER effect [%]: 70%

## CC1(C(=O)NC2CC=C(C(=O)NS(C)(=O)=O)C2)CC(c2cc(F)cc(F)c2)=NO1 (mixture of isomers) [Example 1.61]
[1]; 10 DAT, HER dose 8 g a.i./ha
  HER effect + SAF [%]: 0%
  Reduction [%]: 100%
  HER effect [%]: 50%
[1]; 10 DAT, HER dose 32 g a.i./ha
  HER effect + SAF [%]: 0%
  Reduction [%]: 100%
  HER effect [%]: 50%

## C=CC1(C(=O)NC2C=CC(C(=O)OC)C2)CC(c2cc(F)cc(F)c2)=NO1 (stereo not drawn) [Example 1.26]
[2]; 21 DAT, HER dose 2 g a.i./ha
  HER effect + SAF: 30%
  Reduction [%]: 68%
  Reduction [Difference]: 63
  HER effect: 93%
[2]; 21 DAT, HER dose 8 g a.i./ha
  Reduction [%]: 47%
  Reduction [Difference]: 45
  HER effect: 95%
[3]; [5]
  HER effect + SAF: 10%
  Reduction [%]: 83%
  Reduction [Difference]: 50
[1]; 21 DAT, HER dose 2 g a.i./ha
  HER effect + SAF [%]: 10%
  Reduction [%]: 89%
  HER effect [%]: 90%
[1]; 21 DAT, HER dose 8 g a.i./ha
  HER effect + SAF [%]: 30%
  Reduction [%]: 68%
  HER effect [%]: 93%

## COC(=O)C1(C)CC(NC(=O)C2(C(C)(F)F)CC(c3cc(F)cc(F)c3)=NO2)CO1 (mixture of isomers) [Example 1.94]
[2]; 10 DAT, HER dose 8 g a.i./ha
  Reduction [Difference]: 90
[2]; 10 DAT, HER dose 32 g a.i./ha
  Reduction [%]: 89%
  Reduction [Difference]: 80
[3]; 10 DAT, HER dose 8 g a.i./ha, cloquintocet-mexyl 50 g a.i./ha
  Reduction [Difference]: 90
[1]; [6]
  HER effect + SAF [%]: 0%
  HER effect [%]: 20%
[1]; 21 DAT, HER dose 6 g a.i./ha
  HER effect + SAF [%]: 10%
  HER effect [%]: 85%
[1]; 21 DAT, HER dose 24 g a.i./ha
  HER effect + SAF [%]: 20%
  HER effect [%]: 85%

## CCOC(=O)C1CC(NC(=O)C2(C)CC(c3cccc(F)c3)=NO2)CO1 (mixture of isomers) [Example 1.67]
[2]; 10 DAT, HER dose 4 g a.i./ha
  Reduction [%]: 67%
  Reduction [Difference]: 20
[2]; 10 DAT, HER dose 16 g a.i./ha
  Reduction [%]: 67%
[3]; 10 DAT, HER dose 16 g a.i./ha, cloquintocet-mexyl 100 g a.i./ha
  Reduction [%]: 83%
[1]; 10 DAT, HER dose 4 g a.i./ha
  HER effect + SAF [%]: 10%
  HER effect [%]: 50%
[1]; 10 DAT, HER dose 16 g a.i./ha
  HER effect + SAF [%]: 20%
  HER effect [%]: 70%

## C=CCOC(=O)C1CC(NC(=O)C2(C=C)CC(c3cc(C)cc(F)c3)=NO2)CO1 (mixture of isomers) [Example 1.85]
[2]; 10 DAT, HER dose 32 g a.i./ha
  HER effect + SAF: 10%
  Reduction [%]: 88%
  Reduction [Difference]: 70

## CC1(C(=O)NC2C=CC(C(=O)O)C2)CC(c2cc(F)cc(F)c2)=NO1 (stereo not drawn) [Example 1.36]
[2]; 21 DAT, HER dose 1 g a.i./ha
  HER effect + SAF: 10%
  Reduction [%]: 67%
  HER effect: 30%
[2]; 21 DAT, HER dose 4 g a.i./ha
  Reduction [%]: 78%
  Reduction [Difference]: 73
[2]; 21 DAT, HER dose 16 g a.i./ha
  HER effect + SAF: 40%
  Reduction [%]: 58%
  Reduction [Difference]: 55
[3]; [7]
  Reduction [%]: 38%
  Reduction [Difference]: 30
[1]; 21 DAT, HER dose 1 g a.i./ha
  HER effect + SAF [%]: 0%
  HER effect [%]: 85%
[1]; 21 DAT, HER dose 4 g a.i./ha
  HER effect + SAF [%]: 60%
  Reduction [%]: 35%
  HER effect [%]: 93%
[1]; 21 DAT, HER dose 16 g a.i./ha
  HER effect + SAF [%]: 70%
  HER effect [%]: 95%
